For 18 compounds, IC50, EC50 and GI50 results are on record in ChEMBL document CHEMBL4190348, “Synthesis of cytotoxically active derivatives based on alkylated 2,3-seco-triterpenoids” (Eur J Med Chem, 2017).

The subject of one test is A549. Nature of the test: Cytotoxicity against human A549 cells assessed as reduction in cell viability incubated for 72 hrs by MTT assay. Conditions: A549, 72 h. It is filed as functional, cell-based. For orientation: Tetrazolium assays rely on reduction of a dye to a coloured formazan, in cell work by metabolically active cells.
For test [1], the system named is Human immunodeficiency virus 1. In words: Antiviral activity against HIV1. It counts as functional, organism-based.
A short description of test [2]: Cytotoxicity against human MS cells assessed as reduction in cell viability incubated for 72 hrs by MTT assay. It counts as functional, cell-based.
The next test concerns RD. In words: Cytotoxicity against human TE32 cells assessed as reduction in cell viability incubated for 72 hrs by MTT assay. It is filed as functional, cell-based.
In the next test the test system is HEp-2. Nature of the test: Cytotoxicity against human Hep2 cells assessed as reduction in cell viability incubated for 72 hrs by MTT assay. It counts as functional, cell-based. Conditions: HEp-2, 72 h.
A further test has as its system HCT-116. Nature of the test: Cytotoxicity against human HCT116 cells assessed as reduction in cell viability incubated for 72 hrs by MTT assay. It counts as functional, cell-based. Conditions: HCT-116, 72 h.
The subject of a further test is HEK293. Nature of the test: Cytotoxicity against HEK293 cells assessed as reduction in cell viability incubated for 72 hrs by MTT assay. The conditions noted are these: Homo sapiens, HEK293, 72 h. It counts as cell-based.
The test system of the next test is HL-60. Nature of the test: Growth inhibition of human HL60 cells. It is filed as functional.
Another test has as its system Human alphaherpesvirus 1. Nature of the test: Antiviral activity against HSV1. It counts as functional, organism-based.

The structures appear in SMILES notation. pIC50: −log10 of the molar value. ≈ marks a conversion by molar mass, not a printed value.

Regarding `C=C(C)[C@@H]1CC[C@]2(C(=O)OC)CC[C@]3(C)[C@H](CC[C@@H]4[C@@](C)(CC#N)[C@H](C(C)(C)C(C)=O)CC[C@]43C)[C@@H]12`, the negative-log IC50 (pIC50) (in the test with A549; in [2]; in the test on RD; with HEp-2; in the test with HCT-116) was below 4.00 in each case. In addition, the EC50 (usually the concentration giving half of the maximal effect) in [1] was determined as 39.9 µg/mL (≈ 80.5 µM).
For `C=C(C)[C@@H]1CC[C@]2(C(=O)OC)CC[C@]3(C)[C@H](CC[C@@H]4[C@@](C)(CC#N)[C@H](C(C)(C)[C@@H](C)OC(C)=O)CC[C@]43C)[C@@H]12`, the pIC50 (usually the negative decadic logarithm of the IC50, by convention in mol/L) was 4.03 with A549; 4.01 in [2]; 4.37 in the test on RD; below 4.00 with HEp-2; below 4.00 with HCT-116.
For `C=C(C=O)[C@@H]1CC[C@]2(C(=O)OC)CC[C@]3(C)[C@H](CC[C@@H]4[C@@](C)(CC#N)[C@H](C(C)(C)C(C)=O)CC[C@]43C)[C@@H]12`, the pIC50 is 5.22 in the test on HEK293; 4.81 with A549; 5.26 in test [2]; 5.30 in the test on RD; 4.28 with HEp-2; 5.14 with HCT-116.
Turning to `C=C(C)[C@@H]1CC=C2[C@@H](CC[C@]3(C)[C@@H]([C@H](C)CC(=O)CC(C)C)CC[C@@]23C)[C@@]1(C)CCC(=O)O`, the GI50 (as a rule, the concentration at which growth is held to half of that of the control) in the test with HL-60 was determined as 6.8 µM.
Consider `COC(=O)[C@]12CC[C@@H](C(C)=O)[C@@H]1[C@H]1CC[C@@H]3[C@@]4(C)C(C#N)=C(C)C(C)(C)[C@@H]4CC[C@@]3(C)[C@]1(C)CC2`, for which the pIC50 (with A549; in test [2]; with RD; in the test with HEp-2; in the test with HCT-116) was below 4.00 throughout.
In the case of `COC(=O)[C@]12CC[C@@H](C(C)=O)[C@@H]1[C@H]1CC[C@@H]3[C@@](C)(CC#N)[C@H](C(C)(C)C(C)=O)CC[C@@]3(C)[C@]1(C)CC2`, the pIC50 (in the test with A549; in [2]; with RD; in the test on HEp-2; in the test on HCT-116) was below 4.00 each time.
As for `C=C(C)[C@@H]1CC[C@]2(C(=O)O)CC[C@]3(C)[C@H](CC[C@@H]4[C@@]5(C)[C@H](C(=O)O)[C@H](O)C(C)(C)[C@@H]5CC[C@]43C)[C@@H]12` [EPICEANOTHIC ACID], in test [1], the EC50 is below 0.064 µg/mL.
Take `CC1(C)CC[C@]23CC[C@]4(C)[C@H](CC[C@@H]5[C@@](C)(CC#N)[C@H](C(C)(C)C(=O)CBr)CC[C@]54C)[C@H]2[C@H]1OC3`: the negative-log IC50 (pIC50) with A549 was below 4.00; in [2], below 4.00; in the test on RD it was 4.28; in the test on HEp-2, below 4.00; with HCT-116, below 4.00.
With `CC(=O)C(C)(C)[C@@H]1CC[C@]2(C)[C@H](CC[C@@H]3[C@H]4[C@H]5OC[C@@]4(CCC5(C)C)CC[C@]32C)[C@@]1(C)CC#N`, the results for the EC50 (in the test on Human alphaherpesvirus 1; in test [1]) were 21.1 µg/mL (≈ 45.1 µM) and 7.2 µg/mL (≈ 15.4 µM), respectively. Besides, the pIC50 (with A549; in test [2]; with RD; in the test with HEp-2; in the test on HCT-116) was below 4.00 each time.
`C=C(C)[C@@H]1CC[C@]2(C(=O)OC)CC[C@]3(C)[C@H](CC[C@@H]4[C@@]5(C)C/C(=N\O)[C@](C)(O)C(C)(C)[C@@H]5CC[C@]43C)[C@@H]12`: the pIC50 with A549 was 4.26; in test [2], 4.63; with RD it was 4.54; in the test with HEp-2 it was 4.15; with HCT-116, below 4.00.
On to `CC1(C)CC[C@]23CC[C@]4(C)[C@H](CC[C@@H]5[C@@]6(C)C(C#N)=C(CO)C(C)(C)[C@@H]6CC[C@]54C)[C@H]2[C@H]1OC3`, for which the negative-log IC50 (pIC50) in the test with A549 is 4.24; in [2], below 4.00; in the test with RD it was below 4.00; with HEp-2 it was below 4.00; in the test with HCT-116 it was below 4.00.
On to `CC1(C)CC[C@]23CC[C@]4(C)[C@H](CC[C@@H]5[C@@](C)(CC#N)[C@H](C(C)(C)C(=O)C(Br)Br)CC[C@]54C)[C@H]2[C@H]1OC3`, for which the pIC50 (in the test with A549; in test [2]; in the test with RD; with HEp-2; with HCT-116) was below 4.00 throughout.
For the compound `C[C@@H](O)C(C)(C)[C@@H]1CC[C@]2(C)[C@H](CC[C@@H]3[C@H]4[C@H]5OC[C@@]4(CCC5(C)C)CC[C@]32C)[C@@]1(C)CC#N`, the pIC50 is below 3.70 with A549; 4.08 in test [2]; 4.02 in the test with RD; below 4.00 in the test on HEp-2; below 4.00 in the test with HCT-116.
On to `C=C(C=O)[C@@H]1CC[C@]2(C(=O)OC)CC[C@]3(C)[C@H](CC[C@@H]4[C@@](C)(CC#N)[C@H](C(C)(C)C(=O)C(Br)Br)CC[C@]43C)[C@@H]12`, for which the negative-log IC50 (pIC50) in the test on A549 is below 4.00; in test [2], 5.20; in the test with RD it was 5.16; in the test on HEp-2, below 4.00; with HCT-116, 4.58.
In the case of `CC(=O)O[C@H](C)C(C)(C)[C@@H]1CC[C@]2(C)[C@H](CC[C@@H]3[C@H]4[C@H]5OC[C@@]4(CCC5(C)C)CC[C@]32C)[C@@]1(C)CC#N`, the pIC50 is 4.34 with A549; 4.67 in test [2]; 4.50 with RD; below 4.00 in the test on HEp-2; 4.19 with HCT-116.
Regarding `C=C(C=O)[C@@H]1CC[C@]2(C(=O)OC)CC[C@]3(C)[C@H](CC[C@@H]4[C@@]5(C)C(C#N)=C(C)C(C)(C)[C@@H]5CC[C@]43C)[C@@H]12`, the pIC50 in the test with A549 is 4.44; in test [2] it was 5.07; with RD, 4.66; in the test with HEp-2, 4.76; with HCT-116, 5.15.
For `C=C(C)[C@@H]1CC[C@]2(C(=O)OC)CC[C@]3(C)[C@H](CC[C@@H]4[C@@](C)(CC#N)[C@H](C(C)(C)[C@@H](C)O)CC[C@]43C)[C@@H]12`, the negative logarithm of the IC50 (pIC50) with A549 was 4.72; in [2], 4.82; with RD it was 4.69; in the test on HEp-2, 4.36; in the test with HCT-116, 4.50.
Take `CC1(C)CC[C@]23CC[C@]4(C)[C@H](CC[C@@H]5[C@@]6(C)C/C(=N\O)[C@](C)(O)C(C)(C)[C@@H]6CC[C@]54C)[C@H]2[C@H]1OC3`: the pIC50 in the test on A549 was below 4.00; in test [2], 4.06; in the test with RD, 4.47; in the test with HEp-2, 4.07; with HCT-116, below 4.00.
